Key:
[1] = target: T1, NPY Y1 receptors (Homo sapiens, UniProt P25929); experiment: Binding affinity at NPY Y1 receptors in SK-N-MC cell membranes, iodine-125-labeled I-PYY radioligand; conditions: SK-N-MC (human neuroblastoma) cell membranes; 125I-PYY radioligand
T1 construct: assayed in SK-N-MC (human neuroplastoma) cell membranes; endogenous in cells; host or cells: SK-N-MC (human neuroblastoma) cell membranes
T1 sequence (P25929 1-384): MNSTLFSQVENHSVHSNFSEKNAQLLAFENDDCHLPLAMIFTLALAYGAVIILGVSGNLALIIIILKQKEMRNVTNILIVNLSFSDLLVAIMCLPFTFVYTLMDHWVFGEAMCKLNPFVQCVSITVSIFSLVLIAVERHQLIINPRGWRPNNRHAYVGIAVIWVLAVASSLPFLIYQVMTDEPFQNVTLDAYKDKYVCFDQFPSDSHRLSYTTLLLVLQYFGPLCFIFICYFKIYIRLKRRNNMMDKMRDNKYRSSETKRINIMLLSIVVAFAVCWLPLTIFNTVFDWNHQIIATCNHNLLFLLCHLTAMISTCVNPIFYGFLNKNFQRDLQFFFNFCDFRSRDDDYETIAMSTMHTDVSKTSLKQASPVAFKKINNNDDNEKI
Description: This pharmacologic activity is assayed in SK-N-MC (human neuroblastoma) cell membranes using iodine-125-labeled I-PYY as a radioligand. […] These types of dihydropyridines have significant affinity for α1-adrenergic receptors and/or Ca^++ channels.
The following examples set forth the process for producing various squarate derivatives of the dihydropyridine. The binding affinities were determined at NPY Y1 receptors. The pharmacologic activity was assayed in SK-N-MC (human neuroblastoma) cell membranes using iodine-125-labeled 1-PYY as ratio ligand. Examples 1 and 2 are directed to the production of the intermediates. Examples 3-6 are directed to the process of producing the squarate derivatives.
The compounds of Examples 1-6 were tested for binding affinity at NPY Y1 receptors. The pharmacologic activity was assayed in SK-N-MC (human neuroplastoma) cell membranes using iodine-125 labeled I-PYY as a radioligand.

Row | Compound | IC50 [1] [nM] | melting point [°C]
1 | COC(=O)C1=C(C)NC(C)=C(C(=O)OC)C1c1ccc(F)c(Nc2c(NCCCN3CCC(c4cccc(OC)c4)CC3)c(=O)c2=O)c1 [Example 4, 4-[4-Fluoro-3-[[2-[[3-[4-(3-methoxyphenyl)-1-piperidinyl]propyl]amino]-3,4-dioxo-1-cyclobuten-1-yl]amino]phenyl]-1,4-dihydro-2,6-dimethyl-3,5-pyridinedicarboxylic Acid, Dimethyl Ester] | 65.8 | 205 to 207
2 | COC(=O)C1=C(C)NC(C)=C(C(=O)OC)C1c1cccc(Nc2c(NCCCN3CCN(C4CCCCC4)CC3)c(=O)c2=O)c1 [Example 5, 4-[3-[[2-[[3-(4-cyclohexyl-1-piperazinyl)propyl]amino]-3,4-dioxo-1-cyclobuten-1-yl]amino]phenyl]-1,4-dihydro-2,6-dimethyl-3,5-pyridinedicarboxylic Acid, Dimethyl Ester] | 140 | 210 to 212
3 | COC(=O)C1=C(C)NC(C)=C(C(=O)OC)C1c1ccc(F)c(Nc2c(NCCCN3CCN(C4CCCCC4)CC3)c(=O)c2=O)c1 [Example 6, 4-[3-[[2-[[3-(4-cyclohexyl-1-piperazinyl)propyl]amino]-3,4-dioxo-1-cyclobuten-1-yl]amino]-4-fluorophenyl]-1,4-dihydro-2,6-dimethyl-3,5-pyridinedicarboxylic Acid, Dimethyl Ester] | 950 | 229 to 230

Other lines, results leading:

Row | IC50 [1] [nM] | melting point [°C] | Compound
4 | > 1000 | 249 to 252 | CCOc1c(Nc2cccc(C3C(C(=O)OC)=C(C)NC(C)=C3C(=O)OC)c2)c(=O)c1=O [Example 1, 4-[3-[(2-Ethoxy-3,4-dioxo-1-cyclobuten-1-yl)amino]phenyl]-1,4-dihydro-2,6-dimethyl-3,5-pyridinedicarboxylic Acid, Dimethyl Ester]
5 | > 1000 | 203 to 205 | CCOc1c(Nc2cc(C3C(C(=O)OC)=C(C)NC(C)=C3C(=O)OC)ccc2F)c(=O)c1=O [Example 2, 4-[3-[(2-Ethoxy-3,4-dioxo-1cyclobuten-1-yl)amino]-4-fluorophenyl]-1,4-dihydro-2,6-dimethyl-3,5-pyridinedicarboxylic Acid, Dimethyl Ester]
6 | 24.6 | – | COC(=O)C1=C(C)NC(C)=C(C(=O)OC)C1c1cccc(Nc2c(NCCCN3CCC(c4cccc(OC)c4)CC3)c(=O)c2=O)c1 [Example 3, 1,4-Dihydro-4-[3-[[2-[[3-[4-(3-methoxyphenyl)-1-piperidinyl]propyl]amino]-3,4-dioxo-1-cyclobuten-1-yl]amino]phenyl]-2,3-dimethyl-3,5-pyridinedicarboxylic Acid, Dimethyl Ester]
